Measurements taken from patent publication EP4603105A1, “PHARMACEUTICAL COMPOSITION CONTAINING CYCLIC COMPOUND HAVING SELECTIVE KRAS INHIBITORY EFFECT AGAINST HRAS AND NRAS” (CHUGAI SEIYAKU KABUSHIKI KAISHA, priority 2022, dated 2024).
*1 amine or outer side, *2 acyl side, *3 side chain or, on linkers, in order; H or OH if unused. Where a SMILES comes first, the peptide text is derived from it. Bridges are numbered along the chain shown (N, C = ends). [ ]: non-standard residue; d: D form. The star is where a group is joined. hPhe(3,5-F2-4-CF3) = N[C@@H](CCc1cc(F)c(C(F)(F)F)c(F)c1)C(=O)O; X6 = CC(C)(C)CCN([C@@H](Cc1ccc(C(F)(F)F)cc1)C(=O)[*:2])[*:1]; hPhe(3-Cl-4-CF3) = N[C@@H](CCc1ccc(C(F)(F)F)c(Cl)c1)C(=O)O; NPrPhe(4-CF3) = CCCN[C@@H](Cc1ccc(C(F)(F)F)cc1)C(=O)O; NMeGly(cPent) = CN[C@H](C(=O)O)C1CCCC1; Hyp = O=C(O)[C@@H]1C[C@@H](O)CN1; NMeD = CN[C@@H](CC(=O)O)C(=O)O; NMeL = CN[C@@H](CC(C)C)C(=O)O; αMeS = C[C@](N)(CO)C(=O)O; Morpholide = C1CN(*)CCO1; Ac5c = NC1(C(=O)O)CCCC1; Aze = O=C(O)[C@@H]1CCN1; Ac4c = NC1(C(=O)O)CCC1; Sar = CNCC(=O)O

Legend:
[1] = molecular target: GDP-bound NRAS wild-type protein (Homo sapiens, UniProt P01111); test: Binding to NRAS by surface plasmon resonance (SPR), KD and KD ratio to KRAS
Method in brief: (§1)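 Captured GDP-RAS (~100–300 RU) was exposed to increasing compound concentrations, 75 s per step, in running buffer with 10 µM GDP, 10 mM MgCl2 and 4% DMSO at pH 7.4.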

[2] = test system: human lung cancer strain NCI-H441; assay type: cell-based
Method in brief: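 Step one: dispense the test compound in serial DMSO dilutions. Step three: add the reagent and measure […].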

[3] = molecular target: GDP-bound KRAS wild-type protein (Homo sapiens, UniProt P01116); test: Binding to KRAS by surface plasmon resonance (SPR), dissociation constant KD
Method in brief: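 Measured at 30°C: SPR with GDP-loaded, E. coli-expressed biotin-Avi RAS captured (~100–300 RU), ascending 75 s compound injections, HBS pH 7.4 with GDP, MgCl2, 4% DMSO. KD from 1:1 fit.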

HRAS wild-type protein = HRAS wild-type protein (Homo sapiens, UniProt P01112); test: Binding to HRAS by surface plasmon resonance (SPR), KD and KD ratio to KRAS
Method in brief: as §1

[4] = ratio of KD for GDP-bound NRAS wild-type protein to KD for KRAS
[5] = ratio of KD for HRAS wild-type protein to KD for KRAS
[6] = ratio of the KD value with respect to GDP-bound NRAS wild-type protein to the KD value with respect to KRAS
[7] = Single Cycle Kinetics, 1:1 binding model
[8] = ratio of the KD value with respect to HRAS wild-type protein to the KD value with respect to KRAS

Chain of GDP-bound NRAS wild-type protein (P01111 whole entry): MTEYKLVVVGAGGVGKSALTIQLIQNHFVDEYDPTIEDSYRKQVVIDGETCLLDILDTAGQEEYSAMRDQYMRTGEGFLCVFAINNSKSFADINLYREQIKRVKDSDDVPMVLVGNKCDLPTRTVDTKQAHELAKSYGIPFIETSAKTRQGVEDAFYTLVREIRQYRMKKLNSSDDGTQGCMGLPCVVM
Chain of HRAS wild-type protein (P01112 whole entry): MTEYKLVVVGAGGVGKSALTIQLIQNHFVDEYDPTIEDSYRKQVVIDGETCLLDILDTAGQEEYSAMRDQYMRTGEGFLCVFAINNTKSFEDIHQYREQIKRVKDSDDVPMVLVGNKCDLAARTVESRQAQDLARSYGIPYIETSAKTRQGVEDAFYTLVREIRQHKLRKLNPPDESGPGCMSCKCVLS
Chain of GDP-bound KRAS wild-type protein (P01116 1-188 isoform P01116-2): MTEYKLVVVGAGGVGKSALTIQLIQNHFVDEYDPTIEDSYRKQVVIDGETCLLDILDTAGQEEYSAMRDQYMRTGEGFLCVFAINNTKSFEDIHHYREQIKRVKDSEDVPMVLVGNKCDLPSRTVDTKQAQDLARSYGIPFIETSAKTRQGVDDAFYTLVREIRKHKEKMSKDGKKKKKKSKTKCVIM

Row | Structure (SMILES) | NRAS /KRAS [1, 4] | IC50 [2] | Kd ([3]; 1:1 binding model) | HRAS /KRAS (HRAS wild-type protein; [5]) | NRAS /KRAS [1, 6] | Kd [3, 7] | HRAS /KRAS (HRAS wild-type protein; [8]) | Kd ([3]; Single Cycle Kinetics) | NRAS /KRAS ([1]; ratio of KD value for GDP-bound NRAS wild-type protein to KD value for KRAS (SPR)) | HRAS /KRAS (HRAS wild-type protein; ratio of KD value for HRAS wild-type protein to KD value for KRAS (SPR))
1 | CC[C@H](C)[C@@H]1NC(=O)[C@H](CC(C)C)N(C)C(=O)C[C@@H](C(=O)N2CCOCC2)N(C)C(=O)[C@H](C2CCCC2)N(C)C(=O)C2(CCCC2)NC(=O)[C@@H]2CCCN2C(=O)[C@H](CCc2ccc(C(F)(F)F)c(Cl)c2)NC(=O)CN(C)C(=O)[C@H](Cc2ccc(C(F)(F)F)cc2)N(CCC(C)(C)C)C(=O)CN(C)C(=O)CN(C)C1=O [PP0127] ([NMeL]I[Sar][Sar][X6][Sar][hPhe(3-Cl-4-CF3)]P[Ac5c][NMeGly(cPent)][NMeD]-Morpholide; lactam N-11) | C (A compound having a KD ratio of 0.1 or more and less than 3 is denoted as C) | 25.3 nM | 0.92 nM | C (A compound having a KD ratio of 0.1 or more and less than 3 is denoted as C) | – | – | – | – | – | –
2 | CC[C@H](C)[C@@H]1NC(=O)[C@H](CC(C)C)N(C)C(=O)C[C@@H](C(=O)N2C3CCC2COC3)N(C)C(=O)[C@H](C2CCCC2)N(C)C(=O)C2(CCCC2)NC(=O)[C@@H]2CCCN2C(=O)[C@H](CCc2cc(F)c(C(F)(F)F)c(F)c2)NC(=O)CN(C)C(=O)[C@H](Cc2ccc(C(F)(F)F)cc2)N2CCCCC[C@@H](C2=O)N(C)C(=O)CN(C)C1=O [PP0511] | – | 414 nM | – | – | A (a compound having 10 or more and less than 20 is denoted as A) | 16 nM | B (a compound having 3 or more and less than 10 is denoted as B) | – | – | –
3 | CCC(CC)[C@H]1C(=O)N(C)[C@H](C(=O)N(C)C)CC(=O)N(C)[C@@H](COC)C(=O)N[C@@H]([C@@H](C)CC)C(=O)N(C)CC(=O)N(C)[C@H]2C/C=C\CCN(C2=O)[C@@H](Cc2ccc(C)cc2)C(=O)N(C)CC(=O)N[C@@H](CCc2ccc(C(F)(F)F)c(Cl)c2)C(=O)N2CCCCC[C@H]2C(=O)NC2(CC(C)(C)C2)C(=O)N1C [PP2966] | A (a compound having 10 or more and less than 20 is denoted as A) | 29.3 nM | 0.57 nM | A (a compound having 10 or more and less than 20 is denoted as A) | – | – | – | – | – | –
4 | CCCOC[C@H]1C(=O)N[C@@H]([C@@H](C)CC)C(=O)N(C)CC(=O)N(C)[C@H]2C/C=C\CCN(C2=O)[C@@H](Cc2ccc(C)cc2)C(=O)N(C)CC(=O)N[C@@H](CCc2ccc(C(F)(F)F)c(OC)c2)C(=O)N2C[C@H](OCC)C[C@H]2C(=O)N(C)C2(CCC2)C(=O)N(C)[C@@H](C(CC)CC)C(=O)N(C)[C@H](C(=O)N(C)C)CC(=O)N1C [PP2323] | – | 3.7 nM | – | – | A (a compound having 10 or more and less than 20 is denoted as A) | 0.14 nM | A (a compound having 10 or more and less than 20 is denoted as A) | – | – | –
5 | C=CCN1CC(=O)N(C)[C@H]2C/C=C\CCN(C2=O)[C@@H](Cc2ccc(C)cc2)C(=O)N(C)CC(=O)N[C@@H](CCc2ccc(C(F)(F)F)c(OC)c2)C(=O)N2C[C@H](OCC)C[C@H]2C(=O)NC2(CC(C)(C)C2)C(=O)N(C)[C@@H](C2CCCC2)C(=O)N(C)[C@H](C(=O)N(C)C)CC(=O)N(C)[C@@H](CC(C)C)C(=O)N[C@@H]([C@@H](C)CC)C1=O [PP2058] | – | 3.7 nM | – | – | A (a compound having 10 or more and less than 20 is denoted as A) | 0.21 nM | A (a compound having 10 or more and less than 20 is denoted as A) | – | – | –
6 | CC[C@H](C)[C@@H]1NC(=O)[C@H](CC(C)C)N(C)C(=O)C[C@@H](C(=O)N(C)C)N(C)C(=O)[C@H](C2CCCC2)N(C)C(=O)C2(CCCC2)NC(=O)[C@@H]2CCCN2C(=O)[C@H](CCc2ccc(C(F)(F)F)c(Cl)c2)NC(=O)CN(C)C(=O)[C@H](Cc2ccc(F)cc2)N2CCCCC[C@@H](C2=O)N(C)C(=O)CN(C)C1=O [PP0971] | B (a compound having 3 or more and less than 10 is denoted as B) | 54 nM | – | B (a compound having 3 or more and less than 10 is denoted as B) | – | – | – | 0.34 nM | – | –
7 | CCO[C@@H]1C[C@H]2C(=O)NC3(CC(C)(C)C3)C(=O)N(C)[C@@H](C(CC)CC)C(=O)N(C)[C@H](C(=O)N(C)C)CC(=O)N(C)[C@@H](C(C)C)C(=O)N[C@@H]([C@@H](C)CC)C(=O)N(C)CC(=O)N(C)[C@H]3C/C=C\CCN(C3=O)[C@@H](Cc3ccc(C)cc3)C(=O)N(C)CC(=O)N[C@@H](CCc3ccc(C(F)(F)F)c(Cl)c3)C(=O)N2C1 [PP2158] | – | 25.4 nM | – | – | AA (a compound having 20 or more is denoted as AA) | 0.79 nM | A (a compound having 10 or more and less than 20 is denoted as A) | – | – | –
8 | CCO[C@@H]1C[C@H]2C(=O)NC3(CC(C)(C)C3)C(=O)N(C)[C@@H](C3CCCC3)C(=O)N(C)[C@H](C(=O)N(C)CC)CC(=O)N(C)[C@@H]([C@@H](C)OC)C(=O)N[C@@H]([C@@H](C)CC)C(=O)N(C)CC(=O)N(C)[C@H]3C/C=C\CCN(C3=O)[C@@H](Cc3ccc(C)cc3)C(=O)N(C)CC(=O)N[C@@H](CCc3ccc(C(F)(F)F)c(Cl)c3)C(=O)N2C1 [PP3180] | B (a compound having 3 or more and less than 10 is denoted as B) | 13.3 nM | 0.37 nM | B (a compound having 3 or more and less than 10 is denoted as B) | – | – | – | – | – | –
9 | CCCN1C(=O)CN(C)C(=O)[C@@H]2CCN2C(=O)[C@H]([C@@H](C)CC)NC(=O)[C@H](CC(C)C)N(C)C(=O)C[C@@H](C(=O)N(C)C)NC(=O)[C@H](C2CCCC2)N(C)C(=O)C2(CCC2)NC(=O)[C@@H]2C[C@@H](OCC)CN2C(=O)[C@H](CCc2ccc(C(F)(F)F)c(Cl)c2)NC(=O)CN(C)C(=O)[C@@H]1Cc1ccc(C(F)(F)F)cc1 [PP0378] ([NMeL]I[Aze][Sar][NPrPhe(4-CF3)][Sar][hPhe(3-Cl-4-CF3)][Hyp](Et)[Ac4c][NMeGly(cPent)]D-NMe2; lactam N-11) | B (a compound having 3 or more and less than 10 is denoted as B) | 110 nM | 0.85 nM | B (a compound having 3 or more and less than 10 is denoted as B) | – | – | – | – | – | –
10 | CCCOC[C@H]1C(=O)N[C@@H]([C@@H](C)CC)C(=O)N(C)CC(=O)N(C)[C@H]2C/C=C\CCN(C2=O)[C@@H](Cc2ccc(C(F)(F)F)cc2)C(=O)N(C)CC(=O)N[C@@H](CCc2ccc(C(F)(F)F)c(OC)c2)C(=O)N2C[C@@H](C)C[C@H]2C(=O)NC2(CC(C)(C)C2)C(=O)N(C)[C@@H](C2CCCC2)C(=O)N(C)[C@H](C(=O)N(C)C)CC(=O)N1C [PP1997] | – | 14.2 nM | – | – | A (a compound having 10 or more and less than 20 is denoted as A) | 0.098 nM | B (a compound having 3 or more and less than 10 is denoted as B) | – | – | –
11 | CCC[C@H]1C(=O)N[C@@H]([C@H](C)CC)C(=O)N(C)CC(=O)N(C)[C@H]2C/C=C\CCN(C2=O)[C@@H](Cc2ccc(C)cc2)C(=O)N(C)CC(=O)N[C@@H](CCc2ccc(C(F)(F)F)c(Cl)c2)C(=O)N2C[C@H](OCC)C[C@H]2C(=O)NC2(CC(C)(C)C2)C(=O)N(C)[C@@H](CC(C)(C)C)C(=O)N(C)[C@H](C(=O)N(C)C)CC(=O)N1C [PP2219] | – | 50.9 nM | – | – | A (a compound having 10 or more and less than 20 is denoted as A) | 1.6 nM | A (a compound having 10 or more and less than 20 is denoted as A) | – | – | –
12 | CCC[C@H]1C(=O)N[C@@H]([C@@H](C)CC)C(=O)N(C)CC(=O)N(C)[C@H]2C/C=C\CCN(C2=O)[C@@H](Cc2ccc(C)cc2)C(=O)N(C)CC(=O)N[C@@H](CCc2cc(F)c(C(F)(F)F)c(F)c2)C(=O)N2C[C@H](C)C[C@H]2C(=O)NC2(CCC2)C(=O)N(C)[C@@H](C2CCCC2)C(=O)N(C)[C@H](C(=O)N(C)CC)CC(=O)N1C [PP1862] | – | 22.2 nM | – | – | – | 0.12 nM | – | – | A (a compound having 10 or more and less than 20 is denoted as A) | A (a compound having 10 or more and less than 20 is denoted as A)
13 | CCOC[C@H]1C(=O)N[C@@H]([C@@H](C)CC)C(=O)N(C2CC2)CC(=O)N(C)[C@H]2C/C=C\CCN(C2=O)[C@@H](Cc2ccc(C(F)(F)F)cc2)C(=O)N(C)CC(=O)N[C@@H](CCc2ccc(C(F)(F)F)c(OC)c2)C(=O)N2C[C@H](OCC)C[C@H]2C(=O)N(C)C2(CCC2)C(=O)N(C)[C@@H](C(CC)CC)C(=O)N(C)[C@H](C(=O)N(C)C)CC(=O)N1C [PP2315] | – | 9 nM | – | – | A (a compound having 10 or more and less than 20 is denoted as A) | 0.33 nM | A (a compound having 10 or more and less than 20 is denoted as A) | – | – | –
14 | CCCN1C(=O)CN(C)C(=O)[C@@H]2CCN2C(=O)[C@H]([C@@H](C)CC)NC(=O)[C@H](CC(C)C)N(C)C(=O)C[C@@H](C(=O)N2CCOCC2)N(C)C(=O)[C@H](C2CCCC2)N(C)C(=O)[C@](C)(COC)NC(=O)[C@@H]2CCCN2C(=O)[C@H](CCc2cc(F)c(C(F)(F)F)c(F)c2)NC(=O)CN(C)C(=O)[C@@H]1Cc1ccc(C(F)(F)F)cc1 [PP0779] ([NMeL]I[Aze][Sar][NPrPhe(4-CF3)][Sar][hPhe(3,5-F2-4-CF3)]P[αMeS](Me)[NMeGly(cPent)][NMeD]-Morpholide; lactam N-11) | B (a compound having 3 or more and less than 10 is denoted as B) | 364 nM | – | B (a compound having 3 or more and less than 10 is denoted as B) | – | – | – | 5.1 nM | – | –
